In US11413328B2, “Methods for treating inflammatory conditions of the lungs” (priority 2016, dated 2022):
Bridges are numbered along the chain shown (N, C = ends). Where no end group is shown, it is not given here.

What was measured:
[1] = system: TNF-α, IL-4, IL-5, IL-6, IL-9, IL-13 and IL-33 in lung homogenate; assay: Cytokine ELISA in lung homogenate, prophylactic treatment in HDM asthma model (Example 9); type: in vivo, BALB/c mice
Experimental: (§1) Female 7-10 weeks old BALB/c mice were randomly allocated into 5 study groups one day prior to study start and subcutaneously (SC) sensitized to house dust mite (100 μg HDM in 200 μL saline plus Freund's complete adjuvant in 0.9% saline). The mice were treated with hBD-2 orally and intranasally respectively at a dose of 1.2 mg/kg/day (0.4 mg/kg TID) starting on day 12 in the morning and continued TID at approximately 6 hours intervals. The last dose was administered on day 14 one hour prior to challenge. The total number of doses were 8 doses or a total of […] hBD-2. Mice were then intranasally (IN) challenged with HDM on day 14 (HDM 25 μg in 50 μL of saline).
Lung sampling for cytokine analysis: After completion of every BAL, lungs were removed from the thorax, snap frozen in liquid nitrogen and stored frozen at −80 degrees Celsius until analysis of cytokine concentration of TNF-α, IL-4, IL-5, IL-6, IL-9, IL-13 and IL-33 in lung homogenate by ELISA.

[2] = Pharmacokinetics after subcutaneous or intravenous administration; type: in vivo, NMRI female mice; settings: female, NMRI, mouse, hBD-2 1 mg/kg subcutaneous or intravenous
Experimental: To investigate and compare the pharmacokinetic profile of hBD-2 fused to the C-terminal (molecular weight 71.336 Da) or N-terminal (molecular weight 71.666 Da) of human serum albumin following subcutaneous or intravenous administration of a molar equivalent to 1 mg/kg hBD-2 (molecular weight […]) to NMRI female mice.
The animals were dosed 10 ml/kg of stock concentration of 1.65 mg/ml according to the individual body weight (300 μL for a 30 gram mouse). First blood sample was taken using a submandibular sampling method and the second following Isoflurane anaesthesia and euthanasia.

[3] = system: microbiota of the intestine; assay: 16S microbiota analysis, prophylactic defensin treatment in high fat diet model (Example 10); type: in vivo, mice
Text: Mice were housed in trios, 4 cages per group. Feed intake was registered daily just before lights were turned off at […]. Individual mice were subjected to experimental procedures in altered order both group and cage wise. Mice were kept at room temperature under a 12-hour light/dark cycle at SPF standard conditions. The treatment regime is described in FIG. 38. Mice were fed either a high fat diet (HFD) or a low fat (LF) control diet. The HFD contained 4 subgroups; 1 hBD2, 1 HD5, 1 hBD2/HD5 and 1 standard HFD without supplementation of defensins. Defensin concentration was 1.2 mg hBD2 per kg mouse per day. HD5 was given in equimolar concentration to hBD2. […] Microbial analyses were carried out to study the microbiota of the intestine. Longitudinal 16S characterization was conducted on 4 paired samples from 60 mice, 240 samples in total. Each mouse was sampled prior to diet change, 1 week post diet change, 4 weeks post diet change and at termination, thus ensuring a thorough characterization of the faecal microbiota as a result of defensin treatment.

[4] = system: murine house dust mite/Freunds complete adjuvant driven model of allergic asthma; assay: Lung resistance and compliance after methacholine, HDM/Freunds adjuvant asthma model (Example 2); type: in vivo, BALB/c mice; settings: vs HDM challenged vehicle
Experimental: Female 7-10 weeks old BALB/c mice were randomly allocated into 7 study groups one day prior to study start and subcutaneously (SC) sensitized to house dust mite (100 μg HDM in 200 μL saline plus Freunds complete adjuvant in 0.9% saline). Mice were then intranasally (IN) challenged with HDM on day 14 (HDM 25 μg in 50 μL of saline). […] The initial dose was administered 60 minutes prior to challenge, and the subsequent doses approximately 6 hours apart. Lung function: Starting 48 hours after HDM challenge, measurements of lung resistance and lung compliance were carried out after methacholine challenge (3.125 MCH1; 6.25 MCH2; 12.5 MCH3 and 25 mg/mL MCH4) by anaesthetized, cannulated mice using DSI's Buxco Finepoint RC system. Data are represented as airway resistance at […] and as dose responsive curves.

[5] = system: murine house dust mite/Freunds complete adjuvant driven model of allergic asthma; assay: Total and differential cell counts in BALF, HDM asthma model (Example 2); type: in vivo, BALB/c mice
Experimental: Female 7-10 weeks old BALB/c mice were randomly allocated into 7 study groups one day prior to study start and subcutaneously (SC) sensitized to house dust mite (100 μg HDM in 200 μL saline plus Freunds complete adjuvant in 0.9% saline). Mice were then intranasally (IN) challenged with HDM on day 14 (HDM 25 μg in 50 μL of saline). […] The initial dose was administered 60 minutes prior to challenge, and the subsequent doses approximately 6 hours apart. Airway inflammation: At 48 hours post challenge, bronchoalveolar lavage was performed washing the lungs with 3 volumes of cold PBS (0.4; 0.3 and 0.3 mL, total 1 mL). Total and differential leucocyte cell counts were determined on an automated haematological analyser Sysmex XT-2000iV.

[6] = system: murine house dust mite driven model of allergic asthma; assay: Cell counts in BALF, prophylactic treatment in HDM asthma model (Example 9); type: in vivo, BALB/c mice; settings: prophylactic oral 0.4 mg/kg TID day 12 to day 14
Experimental: as §1
Airway inflammation: At 48 hours post challenge, bronchoalveolar lavage was performed washing the lungs with 3 volumes of cold PBS (0.4; 0.3 and 0.3 mL, total 1 mL). Total and differential leucocyte cell counts were determined on an automated haematological analyser Sysmex XT-2000iV.

[7] = system: IL-1β, TNF-α, IL-6, IL-10 and IFNγ in lung tissue homogenates; assay: Cytokine ELISA in lung tissue homogenates, HDM asthma model (Example 2); type: in vivo, BALB/c mice; settings: vs HDM/vehicle
Experimental: Female 7-10 weeks old BALB/c mice were randomly allocated into 7 study groups one day prior to study start and subcutaneously (SC) sensitized to house dust mite (100 μg HDM in 200 μL saline plus Freunds complete adjuvant in 0.9% saline). Mice were then intranasally (IN) challenged with HDM on day 14 (HDM 25 μg in 50 μL of saline). […] The initial dose was administered 60 minutes prior to challenge, and the subsequent doses approximately 6 hours apart.
Lung sampling for cytokine analysis: After completion of every BAL, lungs were removed from the thorax, snap frozen in liquid nitrogen and stored frozen at −80 degrees Celsius until analysis of cytokine concentration of IL-1β, TNF-α, IL-6, IL-10 and IFNγ by ELISA.

[8] = prophylactic intranasal, not statistically significantly different from the control

Sequence: GIGDPVTCLKSGAICHPVFCPRRYKQIGTCGLPGTKCCKKP (disulfide 8-37, 15-30, 20-38 (inferred)) [hBD-2, human beta defensin 2]
- IL-4 in lung homogenate [1, 8]: trend towards lowering
- IL-5 in lung homogenate [1, 8]: trend towards lowering
- IL-6 in lung homogenate [1, 8]: trend towards lowering
- IL-9 in lung homogenate [1, 8]: trend towards lowering
- IL-13 in lung homogenate [1, 8]: trend towards lowering
- TNF-α in lung homogenate [1, 8]: trend towards lowering
- cytokine concentrations in lung tissue homogenates (TNF-α, IL-4, IL-5, IL-6, IL-9 and IL-13) ([1]; prophylactic oral administration): complete normalization
- half-life ([2]; blood): 1 h
- CL renal ([2]; in vivo, read-out: renal clearance): 10 mL/min
- effect on microbial presence / microbial abundance ([3]; 1.2 mg hBD2 per kg per day in feed, HD5 equimolar, combination 50% + 50%): affected primarily the microbial presence
- abundance of Barnesiella in the colon ([3]; prophylactic treatment, p<0.03): statistically significant increase
- abundance of Lactobacillaceae in colon ([3]; prophylactic treatment, p=0.1): trend towards lower abundance
- decrease of pulmonary compliance ([4]; intranasal TID on day 14): effectively inhibited
- increase of airway resistance ([4]; intranasal TID on day 14): effectively inhibited
- decrease of pulmonary compliance ([4]; oral 0.4 mg/kg TID on day 14): effectively inhibited
- increase of airway resistance / AHR ([4]; oral, hBD-2 0.4 mg/kg TID, dexamethasone 1 mg/kg BID, day 14): effectively inhibited
- neutrophil counts in BALF ([5]; intranasal 0.4 mg/kg/day TID): significantly inhibited
- neutrophil counts in BALF ([5]; intranasal 1.7 mg/kg/day TID): significantly inhibited
- neutrophil counts in BALF [6]: significantly inhibited
- IFN-γ level in lung tissue homogenates ([7]; intranasal): significant effects
- TNF-α level in lung tissue homogenates ([7]; intranasal): not significantly different from the control
- TNF-α level in lung tissue homogenates ([7]; oral (hBD2 0.4 mg/kg TID; dexamethasone 1 mg/kg BID)): significantly reduced
- IFN-γ level in lung tissue homogenates ([7]; oral (hBD-2 0.4 mg/kg TID; dexamethasone 1 mg/kg BID)): significant effects
